≈ marks a conversion by molar mass, not a printed value.
Assays:
Hemolytic activity = assay type: cell-based; conditions: human erythrocyte suspension, human erythrocytes, 37 °C
Description: The hemolytic activity of the compounds was estimated by comparing the optical density of a solution containing a compound being tested and the blood with the optical density of the blood upon 100% hemolysis. A 10% suspension of human erythrocytes was used as an object of investigation; an erythrocytic mass with heparin was washed three times with a physiologic saline (0.9% NaCl) solution, centrifuged for 10 min at 800× g, and resuspended in the physiologic saline (0.9% NaCl) solution to a concentration of 10%. The concentrations of the compounds that corresponded to the MIC for the bacterial test strains were prepared in a physiologic saline (0.9% NaCl) solution (supplemented with 5% DMSO), and 4.5 mL of a compound at the corresponding dilution was added to 0.5 mL of a 10% suspension of erythrocytes. Samples were incubated for 1 h at 37 °C and centrifuged for 10 min at 2000× g. The release of hemoglobin was controlled by measuring the optical density of the supernatant on an AP-101 digital photoelectrocolorimeter (Apel, Kawaguchi, Japan) at 540 nm. Simultaneously, control samples were prepared: controls for zero hemolysis (blank): 0.5 mL of a 10% suspension of erythrocytes was added to a physiologic saline (0.9% NaCl) solution; 100% hemolysis: 0.5 mL of a 10% suspension of erythrocytes was added to 4.5 mL of distilled water. The experiments were repeated three times and data are presented as the mean ± standard deviation.

C.albicans 855–653 [1] = assay: Fungistatic activity (MIC), dilution method; assay type: cell-based; conditions: Candida albicans; C.albicans 855–653, fungistatic activity; read-out: Minimal Inhibiting Concentration (MIC)
Description: (§1) In vitro bacteriostatic and fungistatic activities of the macrocycles were evaluated against pathogenic representatives of Gram-positive bacteria (Staphylococcus aureus 209p, Bacillus cereus 8035), Gram-negative bacteria (Pseudomonas aeruginosa 9027, Escherichia coli F-50), and yeast (Trichophyton mentagrophytes var. gypseum 1773, Aspergillus niger BKMF-1119, Candida albicans 885–653). Minimal inhibitory concentrations (MICs) were estimated by conventional dilution methods for bacteria and fungi. The antibacterial and antifungal assays were performed in Hottinger broth (HiMe-dia Laboratories Pvt. Ltd. Mumbai, India) and Sabouraud dextrose broth (HiMedia Laboratories Pvt. Ltd.) (bacteria 3 × 10^5 cfu/mL and yeast 2 × 10^4 cfu/mL). The bactericidal and fungicidal activities were determined as described earlier. The tests were repeated three times.

C.albicans 855–653 [2] = assay: Fungicidal activity (MFC); assay type: cell-based; conditions: Candida albicans; C.albicans 855–653, fungicidal activity; read-out: Minimal Fungicidal Concentration (MFC)
Description: as §1

S. aureus 209P = assay: Bactericidal activity (MBC); assay type: cell-based; conditions: Staphylococcus aureus, read-out: Minimal Bactericidal Concentration (MBC)
Description: as §1

B. cereus 8035 = assay: Bactericidal activity (MBC); assay type: cell-based; conditions: Bacillus cereus; B. cereus 8035, bactericidal activity; read-out: Minimal Bactericidal Concentration (MBC)
Description: as §1

[3] = Conductometry, critical aggregation concentration; assay type: physicochemical; conditions: water solution, 25 °C; GCR-2 in the presence of two-fold excess of MG
Description: Firstly, self-assembly of GCR-1 was studied by conductometric measurements (Figure 1). Specific conductivity increases proportionately with the GCR-1 concentration in water solution. Inflection on the plot appears at 14 mM, and after this critical aggregation concentration (CAC) the increment rate of conductivity reduces because the aggregates transfer charge less efficiently than monomers. Remarkably, modification of calix[4]resorcinarene by N-methyl-D-glucamine fragment facilitates self-aggregation of macrocycle in water medium (Figure 1). The CAC value for calix[4]resorcinarene (CR-1) without meglumine units at the upper rim is 20 mM that is greater than that for meglumine-modified calix[4]resorcinarene. The driving forces of intermolecular aggregates’ formation are probably hydrogen bonds between hydroxyl groups on the GCR-1 upper rim, so the presence of additional OH-groups in the meglumine group reinforces this noncovalent interaction. A stable pH value, which can be observed over a wide range of concentrations, verifies that the N-methyl-D-glucamine fragment is an effective buffer component (Figure S4). […] As a result, the aggregation of this calix[4]resorcinarene was studied in water solutions at the presence of two-fold excess of N-methyl-D-glucamine (MG). […] Specific conductivity values were measured at least three times for each concentration. […]

[4] = Stability of water solutions; assay type: physicochemical; conditions: water without MG
[5] = Hydrophobic dye (Sudan I) solubilization; assay type: physicochemical; conditions: water solution; GCR-2 with two-fold excess of MG; absorption band at 500 nm region
Description: The method of solubilization of the hydrophobic dye Sudan I was used for determination of formed aggregates’ morphology. The appearance of an absorption band characteristic of a lipophilic substance in an aqueous solution of a specific component indicates the formation of a hydrophobic core of the component aggregates, like in surfactant micelles, which solubilizes the hydrophobic substrate.
Dependence of GCR-2 at 500 nm on its concentration also loses linearity at higher 7.2 mM (Figure 3b). This is because the dissolved molecules of GCR-2 aggregate that confirms by conductometry and tensiometry. The obtained values of the correlation coefficients r^2 calculated for both calixarenes in a wide concentration range depict that GCR-2 has a greater ability to aggregate than GCR-1. […] Probably, the short methyl groups fail to form a nonpolar core capable of incorporating hydrophobic guests. […]
Hydrophobic dye solubilization was carried out by adding an excess of Sudan I to solutions. […] They were filtered, and Sudan I absorbance was measured at 486 nm using a Specord 250 Plus spectrophotometer (Analytic Jena, Jena, Germany) using a 1 mm optical path length quartz cell. Dye absorbance was obtained by subtraction of the contribution of macrocycle to the summary spectrum. Each absorbance spectrum was obtained three times, and the absorbance intensities were within 2–3%.

MIC (C.albicans 855–653 [1]): > 500 µM | CAC, conductometry [3]: 7.9 mM | Stability of water solutions [4]: unstable and eventually precipitate
SMILES: CC1c2cc(c(O)c(CN(C)C[C@@H](O)[C@H](O)[C@@H](O)[C@@H](O)CO)c2O)C(C)c2cc(c(O)c(CN(C)C[C@@H](O)[C@H](O)[C@@H](O)[C@@H](O)CO)c2O)C(C)c2cc(c(O)c(CN(C)C[C@@H](O)[C@H](O)[C@@H](O)[C@@H](O)CO)c2O)C(C)c2cc1c(O)c(CN(C)C[C@@H](O)[C@H](O)[C@@H](O)[C@@H](O)CO)c2O (stereo partly drawn) [GCR-2, N-methyl-D-glucaminemethyl methylcalix[4]resorcinarene]
hemolysis at 1 h, 0.125 mM (Hemolytic activity; concentration 0.125 mM): 21.3 ± 1.7% | hemolysis at 1 h, 0.25 mM (Hemolytic activity; concentration 0.25 mM): 31.6 ± 2.7% | hemolysis at 1 h, 0.5 mM (Hemolytic activity; concentration 0.50 mM): 38.1 ± 3.4% | MFC (C.albicans 855–653 [2]): > 500 µM | MBC (S. aureus 209P): 1000 ± 80 µM (≈ 1370 µg/mL) | MBC (B. cereus 8035): > 1000 µM | Solubilization of hydrophobic dye Sudan I [5]: do not solubilize the hydrophobic Sudan I

From paper PMC6572135, “N-Methyl-D-glucamine–Calix[4]resorcinarene Conjugates: Self-Assembly and Biological Properties” (Molecules, 2019)
